Measured values reported in patent US8076487B2, “Pyridone derivative and herbicide” (Kumiai Chemical Industry Co., Ltd., priority 2006, dated 2011).

Tests used:
Assay type in all cases: in vivo
[1] = tested on: Japanese bulrush (Scirpus juncoides Roxb.); experiment: Test Example 1: herbicidal effect by soil application to paddy field; conditions: paddy field soil application; active ingredient 1,000 g per 1 hectare; wettable powder added dropwise to water surface the day after sowing; examined on the 21st day after application
Outline: (§1)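 Under greenhouse conditions, seeds sown on puddled paddy soil in 100 cm2 pots under 3 cm of standing water received the test compound; injury was assessed with a standard scoring scheme three weeks (day 21) after treatment.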

[2] = tested on: early watergrass (Echinochloa oryzicola Vasing); experiment: as above; conditions: paddy field soil application; active ingredient 1,000 g per 1 hectare; wettable powder added dropwise to water surface the day after sowing; examined on the 21st day after application
Outline: as §1

[3] = tested on: heartshape false pickerelweed (Monochoria vaginalis (Burm.f.) C.Presl); experiment: as above; conditions: paddy field soil application; active ingredient 1,000 g per 1 hectare; wettable powder added dropwise to water surface the day after sowing; examined on the 21st day after application
Outline: as §1

[4] = tested on: barnyardgrass (Echinochloa crus-galli (L.) P. Beauv. var. crus-galli); experiment: Test Example 2: herbicidal effect by soil application to upland field; conditions: soil surface spray, upland field soil, 1,000 g active ingredient per hectare, 21st day after application
Outline: (§2)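 Pots of field soil, seeds sown and soil-covered; wettable powder diluted in water sprayed on soil at 1,000 g a.i./ha (1,000 L/ha). Greenhouse-grown; herbicidal effect rated per standard at 21 days post-application.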

[5] = tested on: green foxtail (Setaria viridis (L.) P. Beauv.); experiment: as above; conditions: soil surface spray, upland field soil, 1,000 g active ingredient per hectare, 21st day after application
Outline: as §2

[6] = tested on: slender amaranth (Amaranthus viridis L.); experiment: as above; conditions: soil surface spray, upland field soil, 1,000 g active ingredient per hectare, 21st day after application
Outline: as §2

[7] = tested on: velvetleaf (Abutilon theophrasti medicus); experiment: as above; conditions: soil surface spray, upland field soil, 1,000 g active ingredient per hectare, 21st day after application
Outline: as §2

[8] = tested on: barnyardgrass (Echinochloa crus-galli (L.) P. Beauv. var. crus-galli); experiment: Test Example 3: herbicidal effect by application to upland field (foliage treatment); conditions: foliage treatment, 1,000 g active ingredient per 1 hectare, 14th day after application, greenhouse
Outline: (§3)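 Effect scores come from a standard grading 14 days after plants, grown from seed for two weeks in field soil in a greenhouse, were sprayed over the top with wettable powder in water at 1,000 g active ingredient per hectare.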

[9] = tested on: green foxtail (Setaria viridis (L.) P. Beauv.); experiment: as above; conditions: foliage treatment, 1,000 g active ingredient per 1 hectare, 14th day after application, greenhouse
Outline: as §3

[10] = tested on: slender amaranth (Amaranthus viridis L.); experiment: as above; conditions: foliage treatment, 1,000 g active ingredient per 1 hectare, 14th day after application, greenhouse
Outline: as §3

[11] = tested on: velvetleaf (Abutilon theophrasti medicus); experiment: as above; conditions: foliage treatment, 1,000 g active ingredient per 1 hectare, 14th day after application, greenhouse
Outline: as §3

## Cn1c(C(F)(F)F)ccc(C(=O)C2=C(Sc3ccccc3)C3CCC(C3)C2=O)c1=O (stereo not shown) [III-14]
[1]
  herbicidal effect, Scirpus juncoides Roxb.: 5 (90% or more of herbicidal effect and crop phytotoxicity)
[2]
  herbicidal effect, Echinochloa oryzicola Vasing: 5 (90% or more of herbicidal effect and crop phytotoxicity)
[3]
  herbicidal effect, Monochoria vaginalis (Burm. f.) C. Presl: 5 (90% or more of herbicidal effect and crop phytotoxicity)
[4]
  herbicidal effect (index), Barnyardgrass: 4 (70 to less than 90% of herbicidal effect and crop phytotoxicity)
[5]
  herbicidal effect (index), Green Foxtail: 4 (70 to less than 90% of herbicidal effect and crop phytotoxicity)
[6]
  herbicidal effect (index), Slender Amaranth: 5 (90% or more of herbicidal effect and crop phytotoxicity)
[7]
  herbicidal effect (index), Velvetleaf: 5 (90% or more of herbicidal effect and crop phytotoxicity)
[8]
  herbicidal effect, Barnyardgrass: 5 (90% or more of herbicidal effect and crop phytotoxicity)
[9]
  herbicidal effect, Green Foxtail: 5 (90% or more of herbicidal effect and crop phytotoxicity)
[10]
  herbicidal effect, Slender Amaranth: 5 (90% or more of herbicidal effect and crop phytotoxicity)
[11]
  herbicidal effect, Velvetleaf: 5 (90% or more of herbicidal effect and crop phytotoxicity)

## CCn1c(C(F)(F)F)ccc(C(=O)C2=C(Sc3ccccc3)C3CCC(C3)C2=O)c1=O (stereo not shown) [III-15]
[1]
  herbicidal effect, Scirpus juncoides Roxb.: 5 (90% or more of herbicidal effect and crop phytotoxicity)
[2]
  herbicidal effect, Echinochloa oryzicola Vasing: 5 (90% or more of herbicidal effect and crop phytotoxicity)
[3]
  herbicidal effect, Monochoria vaginalis (Burm. f.) C. Presl: 5 (90% or more of herbicidal effect and crop phytotoxicity)
[4]
  herbicidal effect (index), Barnyardgrass: 5 (90% or more of herbicidal effect and crop phytotoxicity)
[5]
  herbicidal effect (index), Green Foxtail: 5 (90% or more of herbicidal effect and crop phytotoxicity)
[6]
  herbicidal effect (index), Slender Amaranth: 5 (90% or more of herbicidal effect and crop phytotoxicity)
[7]
  herbicidal effect (index), Velvetleaf: 5 (90% or more of herbicidal effect and crop phytotoxicity)
[8]
  herbicidal effect, Barnyardgrass: 5 (90% or more of herbicidal effect and crop phytotoxicity)
[9]
  herbicidal effect, Green Foxtail: 5 (90% or more of herbicidal effect and crop phytotoxicity)
[10]
  herbicidal effect, Slender Amaranth: 5 (90% or more of herbicidal effect and crop phytotoxicity)
[11]
  herbicidal effect, Velvetleaf: 5 (90% or more of herbicidal effect and crop phytotoxicity)

## CCCn1c(C(F)(F)F)c(C)cc(C(=O)C2=C(O)C3CCC(C3)C2=O)c1=O (stereo not shown) [III-18]
[1]
  herbicidal effect, Scirpus juncoides Roxb.: 5 (90% or more of herbicidal effect and crop phytotoxicity)
[2]
  herbicidal effect, Echinochloa oryzicola Vasing: 5 (90% or more of herbicidal effect and crop phytotoxicity)
[3]
  herbicidal effect, Monochoria vaginalis (Burm. f.) C. Presl: 5 (90% or more of herbicidal effect and crop phytotoxicity)
[4]
  herbicidal effect (index), Barnyardgrass: 5 (90% or more of herbicidal effect and crop phytotoxicity)
[5]
  herbicidal effect (index), Green Foxtail: 3 (50 to less than 70% of herbicidal effect and crop phytotoxicity)
[6]
  herbicidal effect (index), Slender Amaranth: 5 (90% or more of herbicidal effect and crop phytotoxicity)
[7]
  herbicidal effect (index), Velvetleaf: 5 (90% or more of herbicidal effect and crop phytotoxicity)
[8]
  herbicidal effect, Barnyardgrass: 5 (90% or more of herbicidal effect and crop phytotoxicity)
[9]
  herbicidal effect, Green Foxtail: 5 (90% or more of herbicidal effect and crop phytotoxicity)
[10]
  herbicidal effect, Slender Amaranth: 5 (90% or more of herbicidal effect and crop phytotoxicity)
[11]
  herbicidal effect, Velvetleaf: 5 (90% or more of herbicidal effect and crop phytotoxicity)

## COCCn1c(C(F)(F)F)ccc(C(=O)C2=C(O)C3CCC(C3)C2=O)c1=O (stereo not shown) [III-19]
[1]
  herbicidal effect, Scirpus juncoides Roxb.: 5 (90% or more of herbicidal effect and crop phytotoxicity)
[2]
  herbicidal effect, Echinochloa oryzicola Vasing: 5 (90% or more of herbicidal effect and crop phytotoxicity)
[3]
  herbicidal effect, Monochoria vaginalis (Burm. f.) C. Presl: 5 (90% or more of herbicidal effect and crop phytotoxicity)
[4]
  herbicidal effect (index), Barnyardgrass: 5 (90% or more of herbicidal effect and crop phytotoxicity)
[5]
  herbicidal effect (index), Green Foxtail: 5 (90% or more of herbicidal effect and crop phytotoxicity)
[6]
  herbicidal effect (index), Slender Amaranth: 5 (90% or more of herbicidal effect and crop phytotoxicity)
[7]
  herbicidal effect (index), Velvetleaf: 5 (90% or more of herbicidal effect and crop phytotoxicity)
[8]
  herbicidal effect, Barnyardgrass: 5 (90% or more of herbicidal effect and crop phytotoxicity)
[9]
  herbicidal effect, Green Foxtail: 5 (90% or more of herbicidal effect and crop phytotoxicity)
[10]
  herbicidal effect, Slender Amaranth: 5 (90% or more of herbicidal effect and crop phytotoxicity)
[11]
  herbicidal effect, Velvetleaf: 5 (90% or more of herbicidal effect and crop phytotoxicity)

## CCOCCn1c(C(F)(F)F)ccc(C(=O)C2=C(O)C3CCC(C3)C2=O)c1=O (stereo not shown) [III-20]
[1]
  herbicidal effect, Scirpus juncoides Roxb.: 5 (90% or more of herbicidal effect and crop phytotoxicity)
[2]
  herbicidal effect, Echinochloa oryzicola Vasing: 5 (90% or more of herbicidal effect and crop phytotoxicity)
[3]
  herbicidal effect, Monochoria vaginalis (Burm. f.) C. Presl: 5 (90% or more of herbicidal effect and crop phytotoxicity)
[4]
  herbicidal effect (index), Barnyardgrass: 5 (90% or more of herbicidal effect and crop phytotoxicity)
[5]
  herbicidal effect (index), Green Foxtail: 5 (90% or more of herbicidal effect and crop phytotoxicity)
[6]
  herbicidal effect (index), Slender Amaranth: 5 (90% or more of herbicidal effect and crop phytotoxicity)
[7]
  herbicidal effect (index), Velvetleaf: 5 (90% or more of herbicidal effect and crop phytotoxicity)
[8]
  herbicidal effect, Barnyardgrass: 5 (90% or more of herbicidal effect and crop phytotoxicity)
[9]
  herbicidal effect, Green Foxtail: 5 (90% or more of herbicidal effect and crop phytotoxicity)
[10]
  herbicidal effect, Slender Amaranth: 5 (90% or more of herbicidal effect and crop phytotoxicity)
[11]
  herbicidal effect, Velvetleaf: 5 (90% or more of herbicidal effect and crop phytotoxicity)

## COCC(C)n1c(C(F)(F)F)ccc(C(=O)C2=C(O)C3CCC(C3)C2=O)c1=O (stereo not shown) [III-21]
[1]
  herbicidal effect, Scirpus juncoides Roxb.: 5 (90% or more of herbicidal effect and crop phytotoxicity)
[2]
  herbicidal effect, Echinochloa oryzicola Vasing: 5 (90% or more of herbicidal effect and crop phytotoxicity)
[3]
  herbicidal effect, Monochoria vaginalis (Burm. f.) C. Presl: 5 (90% or more of herbicidal effect and crop phytotoxicity)
[4]
  herbicidal effect (index), Barnyardgrass: 5 (90% or more of herbicidal effect and crop phytotoxicity)
[5]
  herbicidal effect (index), Green Foxtail: 5 (90% or more of herbicidal effect and crop phytotoxicity)
[6]
  herbicidal effect (index), Slender Amaranth: 5 (90% or more of herbicidal effect and crop phytotoxicity)
[7]
  herbicidal effect (index), Velvetleaf: 5 (90% or more of herbicidal effect and crop phytotoxicity)
[8]
  herbicidal effect, Barnyardgrass: 5 (90% or more of herbicidal effect and crop phytotoxicity)
[9]
  herbicidal effect, Green Foxtail: 5 (90% or more of herbicidal effect and crop phytotoxicity)
[10]
  herbicidal effect, Slender Amaranth: 5 (90% or more of herbicidal effect and crop phytotoxicity)
[11]
  herbicidal effect, Velvetleaf: 5 (90% or more of herbicidal effect and crop phytotoxicity)

## COCCCn1c(C(F)(F)F)ccc(C(=O)C2=C(O)C3CCC(C3)C2=O)c1=O (stereo not shown) [III-22]
[1]
  herbicidal effect, Scirpus juncoides Roxb.: 5 (90% or more of herbicidal effect and crop phytotoxicity)
[2]
  herbicidal effect, Echinochloa oryzicola Vasing: 5 (90% or more of herbicidal effect and crop phytotoxicity)
[3]
  herbicidal effect, Monochoria vaginalis (Burm. f.) C. Presl: 5 (90% or more of herbicidal effect and crop phytotoxicity)
[4]
  herbicidal effect (index), Barnyardgrass: 5 (90% or more of herbicidal effect and crop phytotoxicity)
[5]
  herbicidal effect (index), Green Foxtail: 5 (90% or more of herbicidal effect and crop phytotoxicity)
[6]
  herbicidal effect (index), Slender Amaranth: 5 (90% or more of herbicidal effect and crop phytotoxicity)
[7]
  herbicidal effect (index), Velvetleaf: 5 (90% or more of herbicidal effect and crop phytotoxicity)
[8]
  herbicidal effect, Barnyardgrass: 5 (90% or more of herbicidal effect and crop phytotoxicity)
[9]
  herbicidal effect, Green Foxtail: 5 (90% or more of herbicidal effect and crop phytotoxicity)
[10]
  herbicidal effect, Slender Amaranth: 5 (90% or more of herbicidal effect and crop phytotoxicity)
[11]
  herbicidal effect, Velvetleaf: 5 (90% or more of herbicidal effect and crop phytotoxicity)

## COCCOCCn1c(C(F)(F)F)ccc(C(=O)C2=C(O)C3CCC(C3)C2=O)c1=O (stereo not shown) [III-23]
[1]
  herbicidal effect, Scirpus juncoides Roxb.: 5 (90% or more of herbicidal effect and crop phytotoxicity)
[2]
  herbicidal effect, Echinochloa oryzicola Vasing: 5 (90% or more of herbicidal effect and crop phytotoxicity)
[3]
  herbicidal effect, Monochoria vaginalis (Burm. f.) C. Presl: 5 (90% or more of herbicidal effect and crop phytotoxicity)
[4]
  herbicidal effect (index), Barnyardgrass: 5 (90% or more of herbicidal effect and crop phytotoxicity)
[5]
  herbicidal effect (index), Green Foxtail: 5 (90% or more of herbicidal effect and crop phytotoxicity)
[6]
  herbicidal effect (index), Slender Amaranth: 5 (90% or more of herbicidal effect and crop phytotoxicity)
[7]
  herbicidal effect (index), Velvetleaf: 5 (90% or more of herbicidal effect and crop phytotoxicity)
[8]
  herbicidal effect, Barnyardgrass: 5 (90% or more of herbicidal effect and crop phytotoxicity)
[9]
  herbicidal effect, Green Foxtail: 5 (90% or more of herbicidal effect and crop phytotoxicity)
[10]
  herbicidal effect, Slender Amaranth: 5 (90% or more of herbicidal effect and crop phytotoxicity)
[11]
  herbicidal effect, Velvetleaf: 5 (90% or more of herbicidal effect and crop phytotoxicity)
